Assay [1] addresses T1, human recombinant histamine H2 receptor (Homo sapiens, UniProt P25021).
T1 construct: expressed in transfected cells; host or cells: CHO-K1 cells
Put plainly: Histamine H2 radioligand binding ([125I]Aminopotentidine). The method in brief: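 Test compounds were assessed for their ability to displace radioligand from the human recombinant histamine H2 receptor. Non-specific binding was determined in the presence of 3 μM Tiotidine, and results were expressed as percent inhibition of specific binding, with 1% DMSO serving as the vehicle.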

For assay [2], the target named is T2, human recombinant adrenergic α2A receptor (Homo sapiens, UniProt P08913).
T2 construct: expressed in transfected cells; host or cells: insect Sf9 cells
T2 sequence (P08913 1-465): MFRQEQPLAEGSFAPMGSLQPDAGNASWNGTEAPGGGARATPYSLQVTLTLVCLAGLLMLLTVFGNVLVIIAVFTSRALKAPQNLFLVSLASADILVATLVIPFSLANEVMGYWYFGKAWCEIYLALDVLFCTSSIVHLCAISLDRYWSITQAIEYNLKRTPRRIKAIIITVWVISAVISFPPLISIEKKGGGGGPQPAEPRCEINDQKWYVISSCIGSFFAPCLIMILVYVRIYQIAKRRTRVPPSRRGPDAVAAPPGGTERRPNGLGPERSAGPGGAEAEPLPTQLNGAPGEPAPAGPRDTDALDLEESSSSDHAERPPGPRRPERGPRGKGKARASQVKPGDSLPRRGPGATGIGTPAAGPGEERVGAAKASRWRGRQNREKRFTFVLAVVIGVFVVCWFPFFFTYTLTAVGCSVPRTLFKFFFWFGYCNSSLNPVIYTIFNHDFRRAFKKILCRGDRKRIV
Put plainly: Adrenergic α2A radioligand binding ([3H]MK-912). Details: Inhibition of ligand binding, Adren. alpha2A: concentration or dose not given beside the values. The settings on record: percent inhibition of specific binding. A digest of the protocol: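 Membranes from Sf9 cells expressing the receptor were incubated with 1 nM [3H]MK-912 for 60 minutes at 25° C in 50 mM Tris-HCl pH 7.4, 12.5 mM MgCl2, 2 mM EDTA. 10 μM WB-4101 defined non-specific binding. Values are percent inhibition of specific bound radioactivity after filtration.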

Assay [3] addresses T3, human recombinant adrenergic α1D receptor (Homo sapiens, UniProt P25100).
T3 construct: expressed in transfected cells; host or cells: HEK-293 cells
T3 sequence (P25100 1-572): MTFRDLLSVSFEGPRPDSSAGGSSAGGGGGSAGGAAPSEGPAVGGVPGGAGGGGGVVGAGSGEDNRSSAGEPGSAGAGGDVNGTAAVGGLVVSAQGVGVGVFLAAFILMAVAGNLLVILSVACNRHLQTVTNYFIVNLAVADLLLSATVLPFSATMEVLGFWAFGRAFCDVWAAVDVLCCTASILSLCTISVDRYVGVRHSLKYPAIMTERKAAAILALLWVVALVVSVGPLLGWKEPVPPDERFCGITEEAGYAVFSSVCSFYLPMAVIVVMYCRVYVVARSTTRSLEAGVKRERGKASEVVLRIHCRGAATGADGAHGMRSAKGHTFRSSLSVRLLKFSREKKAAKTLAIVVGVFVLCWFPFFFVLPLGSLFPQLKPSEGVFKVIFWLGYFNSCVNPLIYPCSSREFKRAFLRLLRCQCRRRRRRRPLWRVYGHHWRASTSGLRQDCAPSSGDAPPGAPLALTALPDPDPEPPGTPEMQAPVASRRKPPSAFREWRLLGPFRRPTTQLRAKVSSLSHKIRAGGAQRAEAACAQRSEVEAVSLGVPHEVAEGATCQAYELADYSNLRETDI
Briefly: Adrenergic α1D radioligand binding ([3H]Prozosin). Details: Inhibition of ligand binding, Adren. alpha1D: concentration or dose not given beside the values. The settings on record: percent inhibition of specific binding. The method, then: Compounds of invention were incubated with 0.6 nM [^3H]Prozosin for 60 minutes at 25° C. Non-specific binding was estimated in the presence of 10 μM phentolamine. Receptor proteins were filtered and washed, the filters were then counted to determine [^3H]Prozosin specifically bound. […] Biochemical assay results are presented as the percent inhibition of specific binding in Table 6.

Assay [4] addresses T4, human recombinant dopamine D2L receptor (Homo sapiens, UniProt P14416).
T4 construct: expressed in transfected cells; host or cells: CHO cells
Briefly: Dopamine D2L radioligand binding ([3H]Spiperone). The note with it: percent inhibition of specific binding. The method, then:
Non-specific binding was estimated in the presence of 10 μM Haloperidol. Receptor proteins were filtered and washed, the filters were then counted to determine [^3H]Spiperone specifically bound. […] Biochemical assay results are presented as the percent inhibition of specific binding in Table 6.

Assay [5] concerns the target T5, human recombinant serotonin (5-Hydroxytryptamine) 5-HT2A receptor (Homo sapiens, UniProt P28223).
T5 construct: expressed in transfected cells; host or cells: CHO-K1 cells
Put plainly: Serotonin 5-HT2A radioligand binding ([3H]Ketanserin). The note with it: percent inhibition of specific binding. The procedure:
Compounds of the invention were incubated with 0.5 nM [^3H]Ketanserin for 60 minutes at 25° C. Non-specific binding was estimated in the presence of 1 μM Mianserin. Receptor proteins were filtered and washed, the filters were then counted to determine [^3H]Ketanserin specifically bound. […] Biochemical assay results are presented as the percent inhibition of specific binding in Table 6.

Where [6] appears, read: percent inhibition of specific binding, screened at 1 μM, read-out: Inhibition of ligand binding, Hist. H2.

Where two headings read alike, the source gives them in different places.

Here are results for 16 compounds from patent publication US9096591B2, “Tetracyclic compounds” (Medivation Technologies, Inc., priority 2007, dated 2015).

Broadly, the inhibition is the change of the read-out against control, counted positive when it falls.

T5 sequence (P28223 whole entry): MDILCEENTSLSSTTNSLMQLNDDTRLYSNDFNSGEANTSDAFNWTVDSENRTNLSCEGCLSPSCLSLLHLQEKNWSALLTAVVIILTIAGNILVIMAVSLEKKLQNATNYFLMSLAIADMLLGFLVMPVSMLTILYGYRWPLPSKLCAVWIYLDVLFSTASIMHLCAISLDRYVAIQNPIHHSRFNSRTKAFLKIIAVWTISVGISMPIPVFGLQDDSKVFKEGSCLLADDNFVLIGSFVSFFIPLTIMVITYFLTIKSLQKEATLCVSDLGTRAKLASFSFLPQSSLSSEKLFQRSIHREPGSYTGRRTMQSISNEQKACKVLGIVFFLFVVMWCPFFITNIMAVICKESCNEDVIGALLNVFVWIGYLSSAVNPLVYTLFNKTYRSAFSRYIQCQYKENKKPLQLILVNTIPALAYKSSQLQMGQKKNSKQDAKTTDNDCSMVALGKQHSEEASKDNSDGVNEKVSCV
T1 sequence (P25021 whole entry): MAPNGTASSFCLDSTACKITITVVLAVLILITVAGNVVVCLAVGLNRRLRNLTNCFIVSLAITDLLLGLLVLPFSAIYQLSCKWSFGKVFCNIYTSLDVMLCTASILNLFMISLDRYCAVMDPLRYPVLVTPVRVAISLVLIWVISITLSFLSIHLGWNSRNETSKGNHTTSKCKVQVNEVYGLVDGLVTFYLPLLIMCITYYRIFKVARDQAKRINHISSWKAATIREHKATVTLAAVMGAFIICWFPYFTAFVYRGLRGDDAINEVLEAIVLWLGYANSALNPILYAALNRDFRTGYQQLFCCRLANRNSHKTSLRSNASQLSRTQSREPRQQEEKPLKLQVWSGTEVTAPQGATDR
T4 sequence (P14416 whole entry): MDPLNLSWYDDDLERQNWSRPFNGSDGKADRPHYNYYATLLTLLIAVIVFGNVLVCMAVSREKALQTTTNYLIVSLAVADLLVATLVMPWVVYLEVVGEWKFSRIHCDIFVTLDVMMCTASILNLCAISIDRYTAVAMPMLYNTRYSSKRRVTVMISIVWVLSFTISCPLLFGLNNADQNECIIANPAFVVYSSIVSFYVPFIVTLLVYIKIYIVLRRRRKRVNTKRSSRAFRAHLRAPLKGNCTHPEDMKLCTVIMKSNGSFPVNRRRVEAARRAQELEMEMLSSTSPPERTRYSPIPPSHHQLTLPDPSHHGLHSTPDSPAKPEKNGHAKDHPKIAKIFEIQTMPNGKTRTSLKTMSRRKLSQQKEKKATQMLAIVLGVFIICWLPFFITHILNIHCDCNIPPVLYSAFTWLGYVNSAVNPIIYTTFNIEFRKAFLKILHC

For `Cc1ccc(C(O)Cn2c3c(c4cc(C)ccc42)CN(C)CC3)cc1` (racemic) [Compound 28, racemic-2-(1,2,3,4-tetrahydro-2,8-dimethylpyrido[4,3-b]indol-5-yl)-1-p-tolylethanol], the inhibition at 0.3 µM in assay [1] (0.3 μM compound, 0.1 nM [125I]Aminopotentidine, read-out: Histamine Binding H2, percent inhibition of specific binding) came to 40%. The inhibition at 1 µM in assay [1] (1 μM compound, 0.1 nM [125I]Aminopotentidine, read-out: Histamine Binding H2, percent inhibition of specific binding) worked out at 58%; in assay [1] (setting [6]), 84%. The “Inhibition of ligand binding, Adren. alpha2A” value (shortened to “Inhibition … Adren. alpha2A”) in assay [2] amounted to 100%. Besides, in assay [3], the “Inhibition of ligand binding, Adren. alpha1D” value (shortened to “Inhibition … Adren. alpha1D”) is given as 89%.
Turning to `CN1CCc2c(c3cc(Cl)ccc3n2CCc2cccnc2)C1` [Compound 55], the “Inhibition of ligand binding, Dop. D2L” value in assay [4] is given as 29%. In addition, the inhibition at 1 µM in assay [1] (setting [6]) was found to be 62%. In addition, in assay [2], the “Inhibition … Adren. alpha2A” value was determined as 86%. Moreover, in assay [3], the “Inhibition … Adren. alpha1D” value stood at 84%. In addition, the “Inhibition of ligand binding, Ser. 5-HT2A” value (shortened to “Inhibition … Ser. 5-HT2A”) in assay [5] was determined as 86%.
Consider `Cc1ccc2c(c1)c1c(n2CCc2cccnc2)CCN(C)C1` [Compound 60], for which, in assay [4], the “Inhibition of ligand binding, Dop. D2L” value is 24%. For the same compound, in assay [1] (setting [6]), the inhibition at 1 µM turned out to be 56%. Moreover, the “Inhibition … Adren. alpha2A” value in assay [2] is 84%. Moreover, in assay [3], the “Inhibition … Adren. alpha1D” value is 82%. Moreover, the “Inhibition … Ser. 5-HT2A” value in assay [5] turned out to be 84%.
Regarding `Cc1ccc2c(c1)c1c(n2CCc2cnccn2)CCN(C)C1` [Compound 62], the “Inhibition of ligand binding, Dop. D2L” value in assay [4] is listed as −3%. In addition, the inhibition at 1 µM in assay [1] (setting [6]) was determined as 15%. In addition, the “Inhibition … Adren. alpha2A” value in assay [2] is given as 51%. In addition, in assay [3], the “Inhibition … Adren. alpha1D” value is on record as 51%. In addition, the “Inhibition … Ser. 5-HT2A” value in assay [5] is 85%.
In the case of `CN1CCc2c(c3cc(Cl)ccc3n2CCN2CCCCC2)C1` [Compound 189], the “Inhibition of ligand binding, Dop. D2L” value in assay [4] turned out to be 0%. Moreover, the inhibition at 1 µM in assay [1] (setting [6]) worked out at 87%. In addition, the “Inhibition … Adren. alpha2A” value in assay [2] amounted to 76%. In assay [3], the “Inhibition … Adren. alpha1D” value stood at 28%.
As to `Cc1ccc(CCn2c3c(c4cc(Cl)ccc42)CN(C)CC3)cn1` [Compound 225, 8-chloro-2,3,4,5-tetrahydro-2-methyl-5-(2-(6-methylpyridin-3-yl)ethyl)-1H-pyrido[4,3-b]indole], the “Inhibition of ligand binding, Dop. D2L” value in assay [4] is 32%. Moreover, the inhibition at 1 µM in assay [1] (read-out: Inhibition of ligand binding, Hist. H2) turned out to be 72%. Moreover, the “Inhibition … Adren. alpha2A” value in assay [2] is 91%. In addition, the “Inhibition … Adren. alpha1D” value in assay [3] came out at 86%. Moreover, the “Inhibition … Ser. 5-HT2A” value in assay [5] amounted to 92%.
For the compound `CC(C)N1CCN(C(=O)Cn2c3c(c4cc(Cl)ccc42)CN(C)CC3)CC1` [Compound 248], in assay [4], the “Inhibition of ligand binding, Dop. D2L” value is listed as 2%. Moreover, the inhibition at 1 µM in assay [1] (setting [6]) was 7%. Further, the “Inhibition … Adren. alpha2A” value in assay [2] is 27%. The “Inhibition … Adren. alpha1D” value in assay [3] turned out to be 26%.
In the same order, the values of `CN1CCc2c(c3cc(F)ccc3n2CCc2ccc(Cl)cc2)C1` [Compound 249] are 64%, 88%, 97% and 65%.
In the same order, the values of `Cc1ccc2c(c1)c1c(n2CC(=O)N2CCC(C)CC2)CCN(C)C1` [Compound 251] are −7%, 21%, 2% and 14%.
For the compound `Cc1ccc(CCn2c3c(c4cc(C(=O)O)ccc42)CN(C)CC3)cn1` [Compound 256, 2-Methyl-5-(2-(6-methylpyridin-3-yl)ethyl)-2,3,4,5-tetrahydro-1H-pyrido[4,3-b]indole-8-carboxylic acid], the inhibition at […] in assay [1] ([…] compound, 0.1 nM [125I]Aminopotentidine, read-out: Histamine Binding H2, percent inhibition of specific binding) is -16%. In assay [1] (setting [6]), the inhibition at 1 µM is -6%. Further, in assay [2], the “Inhibition … Adren. alpha2A” value is −7%. The “Inhibition … Adren. alpha1D” value in assay [3] was −10%. For the same compound, the “Inhibition … Ser. 5-HT2A” value in assay [5] worked out at 2%.
Consider `Cc1ccc2c(c1)c1c(n2CC(=O)N2CCCC2)CCN(C)C1` [Compound 257, 2-(1,2,3,4-tetrahydro-2,8-dimethylpyrido[4,3-b]indol-5-yl)-1-(pyrrolidin-1-yl)ethanone], for which, in assay [4], the “Inhibition of ligand binding, Dop. D2L” value is listed as −7%. In assay [1] (setting [6]), the inhibition at 1 µM came to 1%. Also, the “Inhibition … Adren. alpha2A” value in assay [2] was −4%. For the same compound, in assay [3], the “Inhibition … Adren. alpha1D” value is 3%.
Consider `Cc1ccc(CCn2c3c(c4cc(CO)ccc42)CN(C)CC3)cn1` [Compound 263], for which, in assay [4], the “Inhibition of ligand binding, Dop. D2L” value is given as −4%. In addition, the inhibition at 1 µM in assay [1] (setting [6]) was found to be 15%. Also, the “Inhibition … Adren. alpha2A” value in assay [2] came to 34%. Besides, the “Inhibition … Adren. alpha1D” value in assay [3] came out at 39%. The “Inhibition … Ser. 5-HT2A” value in assay [5] is reported as 24%.
In the same order, the values of `CN1CCc2c(c3cc(Cl)cc(F)c3n2CCc2ccc(C(F)(F)F)nc2)C1` [Compound 338, 8-chloro-6-fluoro-5-(2-(6-(trifluoromethyl)pyridin-3-yl)ethyl)-2,3,4,5-tetrahydro-2-methyl-1H-pyrido[4,3-b]indole] are 22%, 78%, 99%, 83% and 94%.
The matching figures for `CN1CCc2c(c3cc(OC(F)(F)F)ccc3n2CCc2ccc(C(F)(F)F)nc2)C1` [Compound 341, 5-(2-(6-(trifluoromethyl)pyridin-3-yl)ethyl)-2,3,4,5-tetrahydro-2-methyl-8-(trifluoromethoxy)-1H-pyrido[4,3-b]indole]: 8%, 15%, 36%, −3% and 39%.
The matching figures for `CC(C)c1ccc2c(c1)c1c(n2CCc2ccc(C(F)(F)F)nc2)CCN(C)C1` [Compound 342, 8-Isopropyl-2-methyl-5-[2-(6-trifluoromethyl-pyridin-3-yl)-ethyl]-2,3,4,5-tetrahydro-1H-pyrido[4,3-b]indole]: 29%, 39%, 94%, 91% and 74%.
For the compound `CN1CCc2c(c3cc(Cl)c(F)cc3n2CCc2ccc(C(F)(F)F)nc2)C1` [Compound 343], in assay [4], the “Inhibition of ligand binding, Dop. D2L” value is −7%. Also, the inhibition at 1 µM in assay [1] (setting [6]) was determined as 29%. Moreover, the “Inhibition … Adren. alpha2A” value in assay [2] is listed as 90%. Further, the “Inhibition … Adren. alpha1D” value in assay [3] came to 61%. Besides, in assay [5], the “Inhibition … Ser. 5-HT2A” value came to 89%.
